Data: patent EP0352652B1, “Use of imexone as an immunosuppressive agent” (BOEHRINGER MANNHEIM GMBH, priority 1988, dated 1990)

Experiments:
[1] = test system: Methylcholanthren-induzierte Fibrosarkomzellinie (MethA); assay: Tumour growth inhibition assay (TGI), spontaneous proliferation of MethA cells, [3H]-thymidine incorporation; type: cell-based, CB6F₁-Mäusen
Method: Die Methylcholanthren-induzierte Fibrosarkomzellinie (MethA) wurde aus der eigenen Tumorzellbank erhalten und intraperitoneal in CB6F₁-Mäusen passagiert.
1 x 10⁴ MethA-Zellen werden mit der zu testenden Imexonkonzentration in DMEM-Medium über 48 h inkubiert. 3 h vor Ablauf der Inkubationszeit wird mit [³H]-Thymidin gepulst, geerntet und ausgewertet wie bei Beispiel 2 beschrieben.

[2] = test system: Milzzellen; assay: Concanavalin A (ConA)-induced proliferation of murine splenocytes (LTT), [3H]-thymidine incorporation; type: cell-based, CB6F₁-Mäusen; settings: for LTT (Splenozyten, ConA) ^3H-TdR cpm (n=6) x̄: 0,5 µg/ml ConA
Method: Milzzellen (4 x 10⁵) von CB6F₁-Mäusen werden mit 0,5 µg/ml ConA in Mikrotiterplatten (Nunc GmbH, Wiesbaden, FRG) und verschiedenen Konzentrationen von Imexon in 6-fach Ansätzen für insgesamt 48 h inkubiert. 5 h vor Ablauf der Inkubationszeit werden die Kulturen mit [³H]-Thymidin gepulst und anschließend auf Glasfiberfilterplattchen mittels eines Multisample Harvester (Skatron A.S., Lier, Norwegen) geerntet. Die Filterplättchen werden getrocknet, und die Radioaktivität in einem Packard Szintillationsspektrometer bestimmt.

[3] = test system: humaner Lymphozyten; assay: Phytohaemagglutinin (PHA)-induced proliferation of human lymphocytes (LTT), [3H]-thymidine incorporation; type: cell-based
Method: 1 ml humanes Vollblut wird mit 500 µg PHA-Lösung (500 µg/ml) und 48 ml DMEM-Mediun verdünnt. Jeweils 200 µl dieses Ansatzes werden mit 20 µl der zu testenden Imexonkonzentration in 6-fach-Ansätzen gemischt und 4 Tage inkubiert. Nach Pulsen mit [³H]-Thymidin wird weitere 24 h inkubiert, geerntet und ausgewertet wie bei Beispiel 2 beschrieben.

[4] = test system: humane B-Lymphozyten; assay: BCGF-dependent proliferation of human B lymphocytes, [3H]-thymidine incorporation; type: cell-based
Method: Die Anreicherung von peripheren humanen B-Zellen und der BCGF-Proliferationsassay wurden wie folgt durchgeführt (vgl. a. Eur. J. Immun. 16, 350 (1986)): Angereicherte humane B-Lymphozyten werden zweimal gewaschen mit komplettiertem RPMI 1640 Medium (Streptomycin/Penicillin, L-Glutamin, 2-Mercaptoethanol, FCS) und auf 3 x 10⁵ Zellen/ml eingestellt. […] dieser Suspension werden jeweils pro Well in Mikrotiterplatten pipettiert. Als Pseudoantigen werden […] einer Lösung von HFCµS-IgG (300 µg/ml) zugegeben und als Wachstumsfaktor 20 µl BCGF (Cellular Products Incorporated) hinzugefügt. Dazu werden 20 µl der zu testenden Verbindung in 10facher Konzentration pipettiert. Die Kulturen werden insgesamt 140 h bei 37°, 5 % CO₂ und 95 % relativen Luftfeuchtigkeit inkubiert. 16 h vor Ablauf der Inkubationszeit wird jede Kultur mit 1 µ Ci einer [³H]-Thymidin-Lösung gepulst. Am Ende des Versuches werden die Zellen mit einem Harvester geerntet und die eingebaute Radioaktivität in einem Flüssigszintillationszähler bestimmt.

[5] = test system: Mäusestamm MRL 1pr/1pr; assay: Autoimmune disease model in MRL mice (lymphadenomas, antinuclear autoantibodies), prophylactic and therapeutic treatment; type: in vivo, Maus
Source text: B. Synthese von antinukleâren Autoantikörpern. Zur Untersuchung des prophylaktischen Effektes von Imexon auf die Entwicklung dieser Symptome wurden 11 Wochen alte MRL Mäuse einmal täglich intraperitoneal mit den angegebenen Dosierungen Imexon und Cyclophosphamid behandelt. Dokumentiert wurden die Zahl der Lymphadenome und die Konzentration antinukleärer Antikörper. Bei der Untersuchung zur therapeutischen Potenz von Imexon wurden MRL Mäuse, […] jedes Tier mindestens ein Lymphadenom […] an Imexon und Cyclophosphamid behandelt. Die Meßparameter waren wiederum Zahl der Lymphadenome sowie Autoantikö[…].

[6] = test system: Walker-Sarkoma 256; settings: rats, after application of Imexon; cited from earlier work
[7] = test system: Leukozyten; Antikörper bildende Milzzellen; settings: after application of Imexon; cited from earlier work
[8] = relative to suppression of BCGF-induced B-cell proliferation, not or only at these concentrations
[9] = Homo sapiens, Lymphocyte, 140 h, read-out: BCGF (humane B-Lym-phozyten) %Hemmung
[10] = prophylactic, 11-week-old MRL mice, once daily intraperitoneal
[11] = therapeutic, lymphoma-bearing MRL mice (ca. 14 weeks old), once daily

Compound: N=C1NC(=O)N2CC12 (stereo not drawn) [Imexon, 4-Imino-1,3-diazabicyclo-(3.1.0)-hexan-2-on]
- TGI (MethA) ^3H-TdR cpm (n=6) x̄ ([1]; Imexon 0.1 µg/ml, 48 h): 31722 cpm
- TGI (MethA) ^3H-TdR cpm (n=6) x̄ ([1]; Imexon 0.3 µg/ml, 48 h): 37593 cpm
- TGI (MethA) ^3H-TdR cpm (n=6) x̄ ([1]; Imexon 1 µg/ml, 48 h): 35475 cpm
- TGI (MethA) ^3H-TdR cpm (n=6) x̄ ([1]; Imexon 3 µg/ml, 48 h): 35473 cpm
- TGI (MethA) ^3H-TdR cpm (n=6) x̄ ([1]; Imexon 10 µg/ml, 48 h): 21913 cpm
- TGI (MethA) ^3H-TdR cpm (n=6) x̄ ([1]; Imexon 30 µg/ml, 48 h): 911 cpm
- TGI (MethA) ^3H-TdR cpm (n=6) x̄ ([1]; Imexon 100 µg/ml, 48 h): 534 cpm
- inhibition at 0.1 µg/mL ([1]; Meth-A, 48 h, Imexon 0.1 µg/ml, read-out: TGI (MethA) %Hemmung): 7%
- inhibition at 0.3 µg/mL ([1]; Meth-A, 48 h, Imexon 0.3 µg/ml, read-out: TGI (MethA) %Hemmung): -11%
- inhibition at 1 µg/mL ([1]; Meth-A, 48 h, Imexon 1 µg/ml, read-out: TGI (MethA) %Hemmung): -4%
- inhibition at 3 µg/mL ([1]; Meth-A, 48 h, Imexon 3 µg/ml, read-out: TGI (MethA) %Hemmung): -4%
- inhibition at 10 µg/mL ([1]; Meth-A, 48 h, Imexon 10 µg/ml, ** p < 0.001, read-out: TGI (MethA) %Hemmung): 35%
- inhibition at 30 µg/mL ([1]; Meth-A, 48 h, Imexon 30 µg/ml, ** p < 0.001, read-out: TGI (MethA) %Hemmung): 97%
- inhibition at 100 µg/mL ([1]; Meth-A, 48 h, Imexon 100 µg/ml, ** p < 0.001, read-out: TGI (MethA) %Hemmung): 98%
- minimal effective concentration ([1]; Meth-A, 48 h, spontaneous proliferation, read-out: Konzentration, ab der die Spontanproliferation von MethA-Sarkomzellen signifikant unterdrückt ist): > 10 µg/mL
- höhere Konzentrationen, bei denen die spontane Proliferation von MethA beeinflußt wird [1, 8]: 10-30 fach
- LTT (Splenozyten, ConA) ^3H-TdR cpm (n=6) x̄ ([2]; Imexon 0.1 µg/ml, 48 h): 109717 cpm
- LTT (Splenozyten, ConA) ^3H-TdR cpm (n=6) x̄ ([2]; Imexon 0.3 µg/ml, 48 h): 134032 cpm
- LTT (Splenozyten, ConA) ^3H-TdR cpm (n=6) x̄ ([2]; Imexon 1 µg/ml, 48 h): 119120 cpm
- LTT (Splenozyten, ConA) ^3H-TdR cpm (n=6) x̄ ([2]; Imexon 3 µg/ml, 48 h): 118487 cpm
- LTT (Splenozyten, ConA) ^3H-TdR cpm (n=6) x̄ ([2]; Imexon 10 µg/ml, 48 h): 24895 cpm
- LTT (Splenozyten, ConA) ^3H-TdR cpm (n=6) x̄ ([2]; Imexon 30 µg/ml, 48 h): 2509 cpm
- LTT (Splenozyten, ConA) ^3H-TdR cpm (n=6) x̄ ([2]; Imexon 100 µg/ml, 48 h): 903 cpm
- inhibition at 0.1 µg/mL ([2]; Splenocyte, 48 h, Imexon 0.1 µg/ml, read-out: LTT (Splenozyten, ConA) %Hemmung): 0%
- inhibition at 0.3 µg/mL ([2]; Splenocyte, 48 h, Imexon 0.3 µg/ml, read-out: LTT (Splenozyten, ConA) %Hemmung): -22%
- inhibition at 1 µg/mL ([2]; Splenocyte, 48 h, Imexon 1 µg/ml, read-out: LTT (Splenozyten, ConA) %Hemmung): -8%
- inhibition at 3 µg/mL ([2]; Splenocyte, 48 h, Imexon 3 µg/ml, read-out: LTT (Splenozyten, ConA) %Hemmung): -8%
- inhibition at 10 µg/mL ([2]; Splenocyte, 48 h, Imexon 10 µg/ml, ** p < 0.001, read-out: LTT (Splenozyten, ConA) %Hemmung): 77%
- inhibition at 30 µg/mL ([2]; Splenocyte, 48 h, Imexon 30 µg/ml, ** p < 0.001, read-out: LTT (Splenozyten, ConA) %Hemmung): 98%
- inhibition at 100 µg/mL ([2]; Splenocyte, 48 h, Imexon 100 µg/ml, ** p < 0.001, read-out: LTT (Splenozyten, ConA) %Hemmung): 99%
- minimal effective concentration ([2]; Splenocyte, 48 h, induced by ConA, read-out: Konzentrationen, bei denen die Lymphozytenproliferation signifikant gehemmt wird): > 10 µg/mL
- höhere Konzentrationen, bei denen die ConA-induzierte Lymphozytenproliferation beeinflußt wird [2, 8]: 10-30 fach
- inhibition at 0.1 µg/mL ([3]; Homo sapiens, Lymphocyte, Imexon 0.1 µg/ml, read-out: LTT (Splenozyten, PHA) %Hemmung): 5%
- inhibition at 0.3 µg/mL ([3]; Homo sapiens, Lymphocyte, Imexon 0.3 µg/ml, read-out: LTT (Splenozyten, PHA) %Hemmung): -3%
- inhibition at 1 µg/mL ([3]; Homo sapiens, Lymphocyte, Imexon 1 µg/ml, read-out: LTT (Splenozyten, PHA) %Hemmung): -11%
- inhibition at 3 µg/mL ([3]; Homo sapiens, Lymphocyte, Imexon 3 µg/ml, read-out: LTT (Splenozyten, PHA) %Hemmung): 19%
- inhibition at 10 µg/mL ([3]; Homo sapiens, Lymphocyte, Imexon 10 µg/ml, ** p < 0.001, read-out: LTT (Splenozyten, PHA) %Hemmung): 89%
- inhibition at 30 µg/mL ([3]; Homo sapiens, Lymphocyte, Imexon 30 µg/ml, ** p < 0.001, read-out: LTT (Splenozyten, PHA) %Hemmung): 99%
- inhibition at 100 µg/mL ([3]; Homo sapiens, Lymphocyte, Imexon 100 µg/ml, ** p < 0.001, read-out: LTT (Splenozyten, PHA) %Hemmung): 99%
- minimal effective concentration ([3]; Homo sapiens, Lymphocyte, induced by PHA, read-out: Konzentrationen, bei denen die Lymphozytenproliferation signifikant gehemmt wird): > 10 µg/mL
- LTT (Splenozyten, PHA) ^3H-TdR cpm (n=6) x̄ ([3]; Imexon 0.1 µg/ml): 41849 cpm
- LTT (Splenozyten, PHA) ^3H-TdR cpm (n=6) x̄ ([3]; Imexon 0.3 µg/ml): 45542 cpm
- LTT (Splenozyten, PHA) ^3H-TdR cpm (n=6) x̄ ([3]; Imexon 1 µg/ml): 49348 cpm
- LTT (Splenozyten, PHA) ^3H-TdR cpm (n=6) x̄ ([3]; Imexon 3 µg/ml): 35850 cpm
- LTT (Splenozyten, PHA) ^3H-TdR cpm (n=6) x̄ ([3]; Imexon 10 µg/ml): 4724 cpm
- LTT (Splenozyten, PHA) ^3H-TdR cpm (n=6) x̄ ([3]; Imexon 30 µg/ml): 573 cpm
- LTT (Splenozyten, PHA) ^3H-TdR cpm (n=6) x̄ ([3]; Imexon 100 µg/ml): 585 cpm
- höhere Konzentrationen, bei denen die PHA-induzierte Lymphozytenproliferation beeinflußt wird [3, 8]: 10-30 fach
- Proliferation von B-Lymphozyten [4]: dosisabhängig hemmt
- inhibition at 0.1 µg/mL [4, 9]: 13%
- inhibition at 0.3 µg/mL [4, 9]: 24%
- inhibition at 1 µg/mL [4, 9]: 62%
- inhibition at 3 µg/mL [4, 9]: 85%
- inhibition at 10 µg/mL [4, 9]: 90%
- inhibition at 30 µg/mL [4, 9]: 89%
- inhibition at 100 µg/mL [4, 9]: 90%
- minimal effective concentration ([4]; Homo sapiens, Lymphocyte, 140 h, read-out: Konzentration, bei der die BCGF-induzierte B-Zellproliferation signifikant und spezifisch supprimiert wird): 1 µg/mL
- BCGF (humane B-Lym-phozyten) ^3H-TdR cpm (n=6) x̄ ([4]; Imexon 0.1 µg/ml, 140 h): 4847 cpm
- BCGF (humane B-Lym-phozyten) ^3H-TdR cpm (n=6) x̄ ([4]; Imexon 0.3 µg/ml, 140 h): 4201 cpm
- BCGF (humane B-Lym-phozyten) ^3H-TdR cpm (n=6) x̄ ([4]; Imexon 1 µg/ml, 140 h): 2096 cpm
- BCGF (humane B-Lym-phozyten) ^3H-TdR cpm (n=6) x̄ ([4]; Imexon 3 µg/ml, 140 h): 831 cpm
- BCGF (humane B-Lym-phozyten) ^3H-TdR cpm (n=6) x̄ ([4]; Imexon 10 µg/ml, 140 h): 574 cpm
- BCGF (humane B-Lym-phozyten) ^3H-TdR cpm (n=6) x̄ ([4]; Imexon 30 µg/ml, 140 h): 617 cpm
- BCGF (humane B-Lym-phozyten) ^3H-TdR cpm (n=6) x̄ ([4]; Imexon 100 µg/ml, 140 h): 562 cpm
- Verträglichkeit ([5]; MRL mice, once daily intraperitoneal): sehr guter Verträglichkeit
- Konzentration DNA spezifischer Antikörper [5, 10]: erniedrigt
- Zahl spontan entstehender Lymphadenome [5, 10]: erniedrigt
- Titer der Autoantikörper [5, 11]: nimmt dosisabhängig ab
- Zahl der Lymphadenome [5, 11]: nimmt dosisabhängig ab
- Tumorwachstum von Walker-Sarkoma 256 [6]: Hemmung des Tumorwachstums
- Leukozyten [7]: Anstieg der Leukozyten
- Zahl der Antikörper bildenden Milzzellen [7]: Anstieg der Zahl der Antikörper bildenden Milzzellen
